Among the data in a melting point compilation (Tetko et al.; mined from patent text by program, amines drawn as free bases though some values may be those of a salt) are melting point values, retold here.

As to `Cc1csc(COc2nn3c(-c4ccccc4)nnc3cc2-c2ccccc2)n1`, the melting point was 177 °C.

Compound `CNC1=NN(c2ccc(Cl)c(Cl)c2)CC1` yielded a melting point of 68 to 70 °C.

As to `CC(C)(C)OC(=O)N1Cc2ccccc2CN1`, the melting point fell in the range of 68 to 71 °C.

`C=C(COc1ccc(C(=O)CCC(=O)O)cc1F)COc1ccc(C(C)=O)c(O)c1CCC` came in with a melting point of 132 to 134 °C.

Regarding `Cc1cc(Nc2nc(Cl)nc(Nc3cc(C)c(O)c(C(C)(C)C)c3)n2)cc(C(C)(C)C)c1O`, the melting point was determined as 214 °C.

`CCCCCc1ccc(C(=O)Nc2ccc(-n3nc(C(F)(F)F)cc3C(F)(F)F)cc2)c(=O)o1` showed a melting point of 140 to 141 °C.

As to `CCCCn1c(=O)c2c(cnn2S(=O)(=O)CC)n(CCCC)c1=O`, the melting point was in the range of 119 to 121 °C.

Consider `Clc1ccc2oc(C3CCNCC3)cc2c1`, for which the melting point fell in the range of 77 to 78 °C.

In the case of `Nc1ncnc2cccc(Oc3ccc(F)cc3)c12`, the melting point fell in the range of 188 to 190 °C.

`O=C(O)CC1Cc2ccccc2NC1=O` (centres undefined): the melting point lay in the range of 145 to 146 °C.

With `COc1ccc(-c2nc(/C=C/c3nccn3C)nc3cc(OC)c(OC)cc23)cc1OC`, the melting point was in the range of 180 to 181 °C.

The compound `N#Cc1cc2c(c(C(=O)O)c1)NCCS2` returned a melting point of 241 to 242 °C.

`Cc1ccn(-c2cc(Nc3c(Cl)cc(Cl)cc3Cl)nc(C)n2)n1`: the melting point lay within 245 to 247 °C.

The compound `CCOC(=O)c1c(SC)c(C#N)c(=O)n2ccccc12` showed a melting point of 128 to 129 °C.

The compound `Cc1ccc(F)cc1C(=O)Nc1ccc(C(=O)N2CCc3cn[nH]c3-c3sccc32)cc1` gave a melting point of 310 to 312 °C.

`Brc1ccc(-c2ccc(Br)cc2I)c(I)c1` yielded a melting point of 89 °C.

For the compound `O=C(CCc1cccc2[nH]ccc12)c1ccccc1OCC1CO1` (centres undefined), the melting point came out at 72 °C.

In turn, `Cc1nc2cc3c(cc2c(=O)[nH]1)OCCO3` registered a melting point of 275 °C.

Compound `COc1ccccc1C(O)c1cccc2c1ccn2C` (centres undefined) yielded a melting point of 95 °C.

As to `C=C(CCCCCCCCCCCCCCCCCC)C(=O)OC`, the melting point lay within 48 to 50 °C.

Take `C=CCOc1ccc2c(c1C=NO)OCO2`: the melting point was 166 to 167 °C.

The compound `CCCCCCC(=N)NC(=S)Nc1ccc(SC)cc1` displayed a melting point of 100 to 101 °C.

Compound `CCCCOCc1cc2c3ccccc3[nH]c(=O)n2n1` showed a melting point of 170 to 172 °C.

Turning to `COc1cc(C(C)(C)CNC(=O)c2cccc(Br)c2)cc2c1OC(C)(C)C2`, the melting point lay within 157 to 163 °C.

In the case of `CC(C)CCCC(C)C1CCC2C3CC=C4CC(N=[N+]=[N-])CCC4(C)C3CCC12C` (centres undefined), the melting point is 84 to 86 °C.

The compound `CCN(c1nc(C)cc(C)n1)c1ccc(C(C)C)cc1S(C)(=O)=O` displayed a melting point of 174 to 175 °C.

For the compound `COC(=O)C1=C(C)NC(C)=C(C(=O)OCOC(=O)C(C)C)C1c1cccc(Cl)c1Cl` (centres undefined), the melting point was 145 °C.

With `Oc1ccc(C2=COc3ccccc3O2)cc1`, the melting point lay in the range of 137 to 140 °C.

`CN(C(=O)Cc1csc(N)n1)c1ccc(Cl)cc1` came in with a melting point of 148 to 150 °C.

`CC1(C)c2ccccc2-c2ccc(C3c4ccc(-c5ccc(-c6ccc(C=C(C#N)C(=O)O)s6)s5)c5c4C(CCC5)N3c3ccccc3)cc21` (centres undefined) gave a melting point of 251 °C.

For the compound `COC(=O)c1cccc(-c2cccnc2)c1`, the melting point lay in the range of 125 to 126 °C.

The compound `O=C(Cc1ccccc1)Nc1ccc(-n2nc(C3CC3)cc2C2CC2)cc1` returned a melting point of 133 to 138 °C.

For the compound `O=C(O)Cc1ccc(CNC(=O)C2Cc3ccccc3N2S(=O)(=O)c2ccc(-c3cccc(Cl)c3)cc2)cc1` (centres undefined), the melting point was 120 °C.

Take `CCc1cc(C(C)(C)c2ccc(C(C)(C)c3cc(CC)c(NC)c(CC)c3)cc2)cc(CC)c1NC`: the melting point lay within 105 to 108 °C.

Turning to `Cc1cc(S(N)(=O)=O)ccc1N1CN(c2ccccc2)CC1=O`, the melting point is 206 to 210 °C.

The compound `COc1cccc2c1Sc1ccc(C(C)C(N)=O)cc1C(=O)C2` (centres undefined) showed a melting point of 210 to 211 °C.

On to `Cc1cc(C(=O)O)n(-c2ncc(Cl)cc2Cl)n1`, for which the melting point was 227 to 228 °C.

In turn, `O=C1c2ccc(Nc3ccc(F)cc3F)cc2CCc2c(OC[C@H](O)CO)cccc21` yielded a melting point of 125 °C.

On to `CC(NC1(C(=O)O)CCCC1)C(=O)N1CCCC1C(=O)O` (centres undefined), for which the melting point lay in the range of 142 to 145 °C.

With `CCc1nnc2c(OC)nc3cc(Cl)ccc3n12`, the melting point fell in the range of 221 to 223 °C.

As to `CCOc1c(Cl)cc(C(C)(C)N2CC(C)=C(c3ccccc3)C2=O)cc1Cl`, the melting point lay within 133 to 135 °C.

`N#Cc1ccc(CN2CC=C(/C=C/c3ccccc3)CC2)cc1`: the melting point lay within 155 to 157 °C.

`COc1cc(C(=O)N2Cc3ccc(C(=O)NCc4ccc(OC(F)(F)F)cc4)n3Cc3ccccc32)ccc1-c1ccccc1C` displayed a melting point of 145 to 149 °C.

In turn, `O=C(O)c1cc(S)cc2c1OCCO2` displayed a melting point of 191 to 192 °C.

The compound `N#Cc1nn(-c2c(Cl)cc(C(F)(F)F)cc2Cl)cc1-c1occc1Br` yielded a melting point of 99 to 101 °C.

For `CCP(=O)(CC)C(O)[C@H](CC1CCCCC1)NC(=O)[C@H](CC(C)C)NC(=O)[C@H](Cc1ccccc1)NC(=O)C1CCCC1` (some centres undefined), the melting point was in the range of 170 to 171 °C.

As for `CN(C(=O)/C=C/CSc1nc(N)cc(Cl)n1)c1ccccc1`, the melting point was 152 to 154 °C.

For the compound `CC1CN(C(=O)N(c2ccccc2)c2ccccc2)CCN1C(=O)N(c1ccccc1)c1ccccc1` (centres undefined), the melting point lay within 200 to 202 °C.

Compound `COc1cccc(C2(CC(=O)O)CCCC2C(=O)O)c1` (centres undefined) registered a melting point of 175 to 180 °C.

`CS(=O)(=O)c1ccc(C(Cc2ccc(F)cc2)C(=O)Nc2cncc(Cl)n2)cc1` (centres undefined): the melting point fell in the range of 192 to 193 °C.

`Cc1ccccc1N1CCc2c(C)nc3ccccc3c21` gave a melting point of 148 to 150 °C.

For `CN1C(=O)NC(=O)C1=O`, the melting point was in the range of 146 to 149 °C.

The compound `NS(=O)(=O)c1ccccc1OCCCl` displayed a melting point of 110 °C.

The compound `NS(=O)(=O)c1cc(C(=O)O)cc(SCc2ccsc2)c1-c1ccccc1` came in with a melting point of 92 to 94 °C.

`CCOC(=O)C(=O)Nc1cccc(N)c1C#N`: the melting point was 133 to 136 °C.

In turn, `COc1cc(OC)c2c(C)c(CCN3CCN(c4ccccc4)CC3)c(=O)oc2c1` gave a melting point of 112 to 114 °C.

For `Cc1cc(C)n(C)c1C(=O)C(C#N)C(=O)Nc1ccccc1` (centres undefined), the melting point was 106 to 107 °C.

`O=C1NCc2c1cccc2[N+](=O)[O-]` yielded a melting point of 235 to 237 °C.

For the compound `CCC1(CCCCN2CCN(c3ccccn3)CC2)C(=O)Nc2ccc(F)cc21` (centres undefined), the melting point is 144 to 147 °C.

Turning to `Cc1ccc(Sc2cc([N+](=O)[O-])cc3c2C(=O)OC3=O)cc1`, the melting point was in the range of 180 to 182 °C.

`CC1(C)OC(=O)C(Oc2ccc3ccccc3n2)=C1c1ccc(S(C)(=O)=O)cc1`: the melting point was 141 to 142 °C.

`Cc1nc2c(c3c1[nH]c1ccccc13)C(=NO)CC(C)(C)C2` gave a melting point of 293 to 294 °C.

In the case of `N#Cc1csc(N2C(=O)C(Cc3ccccc3)NC2=S)n1` (centres undefined), the melting point fell in the range of 214 to 216 °C.

Regarding `CC1CN(c2c(F)cc3c(=O)c(C(=O)O)cn(C)c3c2C(F)(F)F)CCN1c1ncccn1` (centres undefined), the melting point is 283 to 284 °C.

Consider `O=[N+]([O-])C(=CC(O)C(=C1NCCN1Cc1ccc(Cl)nc1)[N+](=O)[O-])C1=NCCN1Cc1ccc(Cl)nc1` (centres undefined), for which the melting point fell in the range of 157 to 162 °C.

`CC(C)(C)Sc1cnn(-c2c(Cl)cc(C(F)(F)F)cc2Cl)c1N` gave a melting point of 129 °C.

Take `C=C1C[C@@H](O)[C@H](/C=C/[C@@H](O)CCCCC)[C@H]1Cc1cccc(OCc2ccccc2)c1`: the melting point came to 58 °C.

Consider `COc1cc(C(=O)C(=O)c2ccccc2)c(OC)cc1C(=O)C(=O)c1ccccc1`, for which the melting point lay in the range of 209 to 211 °C.

With `N#Cc1cc(Cl)c(Cl)c(-c2ccc(Cl)cc2)n1`, the melting point lay within 142 to 145 °C.

For the compound `O=C(O)c1cccc(CN2CCC(c3cn(Cc4ccoc4)c4ncccc34)CC2)c1`, the melting point was 177 to 179 °C.

For `O=[N+]([O-])c1ccc(-c2ccc(CCl)o2)cc1`, the melting point was 97 to 99 °C.

`Cn1c(=O)c2c(ncn2CCC(O)N2CCN(C(=O)c3ccco3)CC2)n(C)c1=O` (centres undefined) gave a melting point of 161 to 163 °C.

As for `CC(C)[C@H](NC(=O)OCC1c2ccccc2-c2ccccc21)C(=O)N[C@@H](C)C(=O)O`, the melting point fell in the range of 122 to 123 °C.

The compound `c1ccc(COc2cc3cc(-c4ccccc4)[nH]c3cc2OCc2ccccc2)cc1` gave a melting point of 140 to 141 °C.

Regarding `COC(=O)C(Sc1ccc(C)cc1)(C1=NCCCS1)[N+](=O)[O-]` (centres undefined), the melting point lay in the range of 85 to 89 °C.

Compound `O=C(O)c1ccc(NCc2ccc(Cl)cc2)cc1` had a melting point of 206 to 208 °C.

Turning to `CC1(C)Cc2cc(Br)cc(O)c2O1`, the melting point is 70 °C.

`COC(=O)c1ccc(OC)c(C=O)c1` registered a melting point of 98 to 102 °C.

`CC(=O)C(=NNc1ccc(Cl)cc1)Sc1ccc(Cl)cc1`: the melting point is 164 to 167 °C.

`CC1CC2C3CCC4=CC(=O)C=CC4(C)C3=CCC2(C)C1C(=O)COS(=O)(=O)c1ccc(Br)cc1` (centres undefined) had a melting point of 124 to 129 °C.

In turn, `O=C1CN(c2ccccc2)C(=S)N1Cc1ccccc1` yielded a melting point of 103 °C.

In turn, `CC(=O)OC1CSC(Sc2ccccc2S(C)(=O)=O)C(OC(C)=O)C1OC(C)=O` (centres undefined) gave a melting point of 209 °C.

As for `CCN(Cc1cc(Cl)ccc1OCC(C)C)c1ccc(C(=O)O)nn1`, the melting point was 132 to 134 °C.

Compound `CCOc1cc(Cl)c2cc(F)c(F)c(F)c2n1` returned a melting point of 45 °C.

`Clc1ccc(NN=Cc2ccc(Oc3nn(Cc4ccccc4)c4ccccc34)o2)nn1` returned a melting point of 200 to 202 °C.

Compound `COc1ccccc1N1CCN(CCN(C(=O)C2CCCCC2)c2ccccc2OCC(F)(F)F)CC1` yielded a melting point of 110 to 112 °C.

`O=c1[nH]c(=S)nc2n1C(c1ccc(F)cc1)CO2` (centres undefined): the melting point lay within 211 to 217 °C.

As to `Cn1nc(-c2cccc(-n3ncc4cc(C(C)(C)C)cc(F)c4c3=O)c2CO)cc(Nc2ccn(C[C@@H](O)CO)n2)c1=O`, the melting point was in the range of 245 to 250 °C.

In the case of `COc1ccc2c(c1)CC(=O)c1sccc1C2=C1CCN(C)CC1`, the melting point lay within 157 to 158 °C.
